{
  "source": "patent US20250250230A1",
  "about": "“HETEROCYCLIC COMPOUND” (TAKEDA PHARMACEUTICAL COMPANY LIMITED, priority 2022, published 2025)",
  "data": [
    {"molecular_target": "T1, human orexin type 2 receptor (Homo sapiens, UniProt O43614)", "T1 construct": "expressed in transfected cells", "T1 sequence (O43614 1-444)": "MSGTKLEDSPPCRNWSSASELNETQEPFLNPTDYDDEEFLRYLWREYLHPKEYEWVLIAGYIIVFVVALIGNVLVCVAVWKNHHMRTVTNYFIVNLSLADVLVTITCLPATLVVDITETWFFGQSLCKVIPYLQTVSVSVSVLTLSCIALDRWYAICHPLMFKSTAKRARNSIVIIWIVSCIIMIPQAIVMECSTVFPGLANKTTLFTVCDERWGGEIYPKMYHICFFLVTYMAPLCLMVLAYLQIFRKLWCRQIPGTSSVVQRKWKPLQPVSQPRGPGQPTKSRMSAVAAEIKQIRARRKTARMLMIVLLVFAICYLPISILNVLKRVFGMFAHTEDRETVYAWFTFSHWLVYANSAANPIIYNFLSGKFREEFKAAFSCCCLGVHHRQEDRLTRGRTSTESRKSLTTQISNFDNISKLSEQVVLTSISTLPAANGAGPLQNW", "assay": "Measurement of orexin type 2 receptor agonist activity (calcium fluorescence, Fluo-4 AM, FDSS)", "assay_type": "cell-based", "conditions": "test compound 3 μM; CHO cells expressing human OX2 receptor; DMSO = 0%, orexin A (human) = 100%", "procedure,_shortened": "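CHO-K1 cells stably expressing human OX2R were loaded with Fluo-4 AM (30 min 37 °C, 30 min RT) in HEPES-buffered HBSS with 0.1% BSA and probenecid. Calcium fluorescence was followed on FDSS for 2 min after compound addition; activity normalised to DMSO (0%) and 10 nM orexin A (100%).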", "units": {"OX2R agonist activity (3 μM, %)": "%"}, "values": [
      {"molecule": "CS(=O)(=O)NC1CCCN(C(=O)C2CC2c2ncccc2-c2c(F)cccc2F)C1", "note": "(racemic) [Example 189, a mixture of rac-N-[(3R)-1-{(1R,2R)-2-[3-(2,6-difluorophenyl)pyridin-2-yl]cyclopropane-1-carbonyl}piperidin-3-yl]methanesulfonamide and rac-N-[(3S)-1-{(1R,2R)-2-[3-(2,6-difluorophenyl)pyridin-2-yl]cyclopropane-1-carbonyl}piperidin-3-yl]methanesulfonamide]", "OX2R agonist activity (3 μM, %)": 67},
      {"molecule": "O=C(C1CC1c1ccccc1-c1c(F)cccc1F)N1CC[C@H](NS(=O)(=O)CF)C1", "note": "(mixture of isomers) [Example 202, a mixture of rac-N-{(3S)-1-[(1R,2R)-2-(2′,6′-difluoro[1,1′-biphenyl]-2-yl)cyclopropane-1-carbonyl]pyrrolidin-3-yl}-1-fluoromethanesulfonamide and N-{(3S)-1-[(1S,2S)-2-(2′,6′-difluoro[1,1′-biphenyl]-2-yl)cyclopropane-1-carbonyl]pyrrolidin-3-yl}-1-fluoromethanesulfonamide]", "OX2R agonist activity (3 μM, %)": 106},
      {"molecule": "CCS(=O)(=O)NCC1CCN1C(=O)C1CC1c1ccccc1-c1c(F)cccc1F", "note": "(racemic) [Example 203, a mixture of rac-N-({(2R)-1-[(1R,2R)-2-(2′,6′-difluoro[1,1′-biphenyl]-2-yl)cyclopropane-1-carbonyl]azetidin-2-yl}methyl)ethanesulfonamide and rac-N-({(2S)-1-[(1R,2R)-2-(2′,6′-difluoro[1,1′-biphenyl]-2-yl)cyclopropane-1-carbonyl]azetidin-2-yl}methyl)ethanesulfonamide]", "OX2R agonist activity (3 μM, %)": 94},
      {"molecule": "CN(C)S(=O)(=O)NCC1CCN1C(=O)C1CC1c1ccccc1-c1c(F)cccc1F", "note": "(racemic) [Example 204, a mixture of rac-N′-({(2R)-1-[(1R,2R)-2-(2′,6′-difluoro[1,1′-biphenyl]-2-yl)cyclopropane-1-carbonyl]azetidin-2-yl}methyl)-N,N-dimethylsulfuric diamide and rac-N′-({(2S)-1-[(1R,2R)-2-(2′,6′-difluoro[1,1′-biphenyl]-2-yl)cyclopropane-1-carbonyl]azetidin-2-yl}methyl)-N,N-dimethysulfuric diamide]", "OX2R agonist activity (3 μM, %)": 96},
      {"molecule": "O=C(C1CC1c1ccccc1-c1c(F)cccc1F)N1CCC1CNS(=O)(=O)C1CC1", "note": "(racemic) [Example 205, a mixture of rac-N-({(2R)-1-[(1R,2R)-2-(2′,6′-difluoro[1,1′-biphenyl]-2-yl)cyclopropane-1-carbonyl]azetidin-2-yl}methyl)cyclopropanesulfonamide and rac-N-({(2S)-1-[(1R,2R)-2-(2′,6′-difluoro[1,1′-biphenyl]-2-yl)cyclopropane-1-carbonyl]azetidin-2-yl}methyl)cyclopropanesulfonamide]", "OX2R agonist activity (3 μM, %)": 78},
      {"molecule": "CS(=O)(=O)NC1CCCN(C(=O)C2CC2c2cnccc2-c2c(F)cccc2F)CC1", "note": "(racemic) [Example 206, a mixture of rac-N-[(4R)-1-{(1R,2R)-2-[4-(2,6-difluorophenyl)pyridin-3-yl]cyclopropane-1-carbonyl}azepan-4-yl]methanesulfonamide and rac-N-[(4S)-1-{(1R,2R)-2-[4-(2,6-difluorophenyl)pyridin-3-yl]cyclopropane-1-carbonyl}azepan-4-yl]methanesulfonamide]", "OX2R agonist activity (3 μM, %)": 87},
      {"molecule": "CS(=O)(=O)NC1CCN(C(=O)C2CC2c2ccc(F)cc2-c2ccccc2F)C1", "note": "(racemic) [Example 208, a mixture of rac-N-{(3R)-1-[(1R,2R)-2-(2′,5-difluoro[1,1′-biphenyl]-2-yl)cyclopropane-1-carbonyl]pyrrolidin-3-yl}methanesulfonamide and rac-N-{(3S)-1-[(1R,2R)-2-(2′,5-difluoro[1,1′-biphenyl]-2-yl)cyclopropane-1-carbonyl]pyrrolidin-3-yl}methanesulfonamide]", "OX2R agonist activity (3 μM, %)": 78},
      {"molecule": "Cc1ccc(C2CC2C(=O)N2CCC(NS(C)(=O)=O)C2)c(-c2ccccc2F)c1", "note": "(racemic) [Example 209, a mixture of rac-N-{(3R)-1-[(1R,2R)-2-(2′-fluoro-5-methyl[1,1′-biphenyl]-2-yl)cyclopropane-1-carbonyl]pyrrolidin-3-yl}methanesulfonamide and rac-N-{(3S)-1-[(1R,2R)-2-(2′-fluoro-5-methyl[1,1′-biphenyl]-2-yl)cyclopropane-1-carbonyl]pyrrolidin-3-yl}methanesulfonamide]", "OX2R agonist activity (3 μM, %)": 95},
      {"molecule": "CS(=O)(=O)NC1CCN(C(=O)C2CC2c2ccccc2-c2c(F)cccc2F)CCC1(F)F", "note": "(racemic) [Example 212, a mixture of rac-N-{(4R)-1-[(1R,2R)-2-(2′,6′-difluoro[1,1′-biphenyl]-2-yl)cyclopropane-1-carbonyl]-5,5-difluoroazepan-4-yl}methanesulfonamide and rac-N-{(4S)-1-[(1R,2R)-2-(2′,6′-difluoro[1,1′-biphenyl]-2-yl)cyclopropane-1-carbonyl]-5,5-difluoroazepan-4-yl}methanesulfonamide]", "OX2R agonist activity (3 μM, %)": 91},
      {"molecule": "CC1CN(C(=O)C2CC2c2ccccc2-c2c(F)cccc2F)CCCC1NS(C)(=O)=O", "note": "(racemic) [Example 217]", "OX2R agonist activity (3 μM, %)": 83},
      {"molecule": "CS(=O)(=O)NC1COCCN(C(=O)C2CC2c2ccccc2-c2c(F)cccc2F)C1", "note": "(racemic) [Example 219, a mixture of rac-N-{(6R)-1-[(1R,2R)-2-(2′,6′-difluoro[1,1′-biphenyl]-2-yl)cyclopropane-1-carbonyl]-1,4-oxazepan-6-yl}methanesulfonamide and rac-N-{(6S)-4-[(1R,2R)-2-(2′,6′-difluoro[1,1′-biphenyl]-2-yl)cyclopropane-1-carbonyl]-1,4-oxazepan-6-yl}methanesulfonamide]", "OX2R agonist activity (3 μM, %)": 96},
      {"molecule": "CS(=O)(=O)NC1CCCN(C(=O)C2CC2c2sccc2-c2ccccc2F)CC1", "note": "(racemic) [Example 220, a mixture of rac-N-[(4R)-1-{(1R,2R)-2-[3-(2-fluorophenyl)thiophen-2-yl]cyclopropane-1-carbonyl}azepan-4-yl]methanesulfonamide and rac-N-[(4S)-1-{(1R,2R)-2-[3-(2-fluorophenyl)thiophen-2-yl]cyclopropane-1-carbonyl}azepan-4-yl]methanesulfonamide]", "OX2R agonist activity (3 μM, %)": 79},
      {"molecule": "CS(=O)(=O)NC1CCCN(C(=O)C2CC2c2sccc2-c2c(F)cccc2F)CC1", "note": "(racemic) [Example 221, a mixture of rac-N-[(4R)-1-{(1R,2R)-2-[3-(2,6-difluorophenyl)thiophen-2-yl]cyclopropane-1-carbonyl}azepan-4-yl]methanesulfonamide and rac-N-[(4S)-1-{(1R,2R)-2-[3-(2,6-difluorophenyl)thiophen-2-yl]cyclopropane-1-carbonyl}azepan-4-yl]methanesulfonamide]", "OX2R agonist activity (3 μM, %)": 107},
      {"molecule": "CS(=O)(=O)NC1CCCN(C(=O)C2CC2c2sccc2-c2c(F)cccc2F)C1", "note": "(racemic) [Example 223, a mixture of rac-N-[(3R)-1-{(1R,2R)-2-[3-(2,6-difluorophenyl)thiophen-2-yl]cyclopropane-1-carbonyl}piperidin-3-yl]methanesulfonamide and rac-N-[(3S)-1-{(1R,2R)-2-[3-(2,6-difluorophenyl)thiophen-2-yl]cyclopropane-1-carbonyl}piperidin-3-yl]methanesulfonamide]", "OX2R agonist activity (3 μM, %)": 81},
      {"molecule": "CS(=O)(=O)NC1CCN(C(=O)C2CC2c2ccc(C(F)F)cc2-c2c(F)cccc2F)C1", "note": "(racemic) [Example 228, a mixture of rac-N-[(3R)-1-{(1R,2R)-2-[5-(difluoromethyl)-2′,6′-difluoro[1,1′-biphenyl]-2-yl]cyclopropane-1-carbonyl}pyrrolidin-3-yl]methanesulfonamide and rac-N-[(3S)-1-{(1R,2R)-2-[5-(difluoromethyl)-2′,6′-difluoro[1,1′-biphenyl]-2-yl]cyclopropane-1-carbony}pyrrolidin-3-yl]methanesulfonamide]", "OX2R agonist activity (3 μM, %)": 90},
      {"molecule": "CS(=O)(=O)NC1CCCN(C(=O)C2CC2c2ccc(C(F)F)cc2-c2c(F)cccc2F)CC1", "note": "(racemic) [Example 229, a mixture of rac-N-[(4R)-1-{(1R,2R)-2-[5-(difluoromethyl)-2′,6′-difluoro[1,1′-biphenyl]-2-yl]cyclopropane-1-carbonyl}azepan-4-yl]methanesulfonamide and rac-N-[(4S)-1-{(1R,2R)-2-[5-(difluoromethyl)-2′,6′-difluoro[1,1′-biphenyl]-2-yl]cyclopropane-1-carbonyl}azepan-4-yl]methanesulfonamide]", "OX2R agonist activity (3 μM, %)": 64},
      {"molecule": "CS(=O)(=O)NC1CCCN(C(=O)C2CC2c2ccc(C(F)F)cc2-c2c(F)cccc2F)C1", "note": "(racemic) [Example 230, a mixture of rac-N-[(3R)-1-{(1R,2R)-2-[5-(difluoromethyl)-2′,6′-difluoro[1,1′-biphenyl]-2-yl]cyclopropane-1-carbonyl}piperidin-3-yl]methanesulfonamide and rac-N-[(3S)-1-{(1R,2R)-2-[5-(difluoromethyl)-2′,6′-difluoro[1,1′-biphenyl]-2-yl]cyclopropane-1-carbonyl}piperidin-3-yl]methanesulfonamide]", "OX2R agonist activity (3 μM, %)": 91}
    ]}
  ]
}
